Results taken from patent publication US20040009947A1, “Compounds and methods for enhancing delivery of free polynucleotide” (priority 1998, published 2004).
“Also recorded” adds a separate entry of the source. Counter-ions that a name gives are not always drawn.

How the values were obtained:
[1] = Toxicity of intratracheal ATA/plasmid in mice (lethality, health assessment, lung histology); assay type: in vivo, mouse; conditions: for mice died: within 8 to 24 hours, pilot experiments
Protocol: Dose-response experiments can be used to efficacy, toxicity, and effective dose of a particular enhancing agent or polynucleotide preparation. […] Histologic evaluation of treated lung tissue was subsequently performed. […] ATA is often employed for inhibition of cultured cell apoptosis, but relatively few publications describe in vivo applications. In vivo dosing employed in published reports ranges from 4 micrograms administered to the […] cerebral ventricle of gerbils to 10 mg/kg/hour continuous infusion in a hamster carotid stenosis model Based on this literature, a dose range from 0.1 mg/kg to 8 mg/kg ATA administered with 100 micrograms of plasmid was tested. […] Subsequent histologic examination was performed using lung tissue obtained from mice treated with up to 5 mg/kg ATA.
To obtain information about toxicity, mouse lung tissue was treated with ATA +/− plasmid and routine histologic analyses were performed. […] Therefore, intratracheal instillation of plasmid +/− ATA was performed, and two days later the treated tissues were histologically analyzed after inflation and fixation in formalin followed by routine hematoxylin and eosin staining in paraffin sections. Treatment groups included untreated controls, 100 μl of water for injection (WFI), 100 μg of pND2Lux diluted in WFI, and plasmid with […] body mass diluted in WFI. The images shown in FIG. 9 are representative photomicroscopic fields that include both conducting airway and pulmonary parenchyma.

[2] = test system: macaque respiratory tissues; assay: Bronchoscopic administration of plasmid +/- ATA to macaque lung, luciferase assay and histology; assay type: in vivo; conditions: 48 hours after treatment, H&E
Protocol: Extending the experiment from murine to nonhuman primate respiratory tissues, the activity of ‘free’ plasmid DNA +/− ATA in macaque respiratory tissues using male rhesus macaques was tested. Initially, the lavage fluid is tested for DNAse activity +/− ATA by incubation with plasmid after which gel electrophoresis is performed as described above with murine lung lavage samples. After a 70 day quarantine, the animals are treated using three general techniques. For direct administration of […] to pulmonary parenchyma, macaques are anesthetized (ketamine, veterinarian assisted) and a pediatric bronchoscope will be passed per nasum with direct visualization of the bronchial tree. Typically, plasmid preparations (3 ml/Kg macaque weight) or related treatments (plasmid/ATA mixtures etc.) are instilled directly via the bronchoscope into the right lower lobe. The left upper lobe of the same macaque is used as an internal control. […]
As described above, relative luciferase activity is determined using the Enhanced Luciferase Assay Kit and a Monolight 2010 luminometer (both from Analytical Luminescence Laboratories, San Diego, Calif.). […] Luciferase light emissions from 31 microliters of the lysate are measured over a 10 second period, and results are expressed as a function of total protein, total tissue mass, and total DNA dose.

mouse lung = assay: Intratracheal plasmid transfection of mouse lung, luciferase reporter assay of lung homogenate; assay type: in vivo; conditions: for Level of reporter protein expression after intratracheal administration of plasmid, enhancement by co-administration: intratracheal plasmid with DNAse inhibitor, mouse lung
NIH3T3 = assay: Transfection of cultured cells with DNA/DOTAP +/- ATA, luciferase assay; assay type: cell-based; conditions: very highest doses 80 μg/ml, 40 μg/ml, 10 μg/ml
Protocol: NIH3T3 (ATCC CRL 1658) were grown in Dulbecco's Modified Eagle's Medium and 10% calf serum. NIH3T3 were also plated at a density of 5×10^4 cells/ml in 24 well plates 24 hours prior to transfection and cells were transfected as subconfluent monolayer.
The sequential addition of appropriate amounts of serum-free DMEM, plasmid DNA ([…]), ATA in serum-free DEM and filter sterilized (see below for doses), and DOTAP (DOTAP:DNA formulation of 5 μg: 1 μg) were pippetted into a 2 ml Eppendorf tube to give a total volume of […] and mixed with a vortex mixer. A […] aliquot of the resultant transfection complex was added to each well of the cells above after the cell media had been aspirated off. The cells were incubated for 2 hours at 37° C. At the two hour time point, the mixture was removed and one ml of culture media was added to each well. […]
(§1) Relative luciferase activity was determined using the Enhanced Luciferase Assay Kit and Monolight 2010 luminometer (Analytical Luminescence Laboratories, San Diego, Calif.). […] For In vitro experiments, luciferase light emissions from 20 μl of the cell lysate were measured over a 10 second period, and results expressed as a function of the total lysate volume. For in vivo experiments, luciferase light emissions from […] of the lysate were measured over a 10 second period, and results expressed as a function of the total lysate volume.

Macaque Skin = assay: Intradermal injection of luciferase DNA into macaque skin +/- ATA; assay type: in vivo; conditions: 100 μg plasmid and 50 μg ATA intradermal versus plasmid alone
Protocol: To further confirm the utility of nuclease inhibitors in combination with direct DNA delivery, the activity of free plasmid DNA +/− ATA in skin tissues was tested. The plasmid and animal protocols were identical to those described above. Intradermal injections were performed by injecting 100 μl solutions using 30 gauge needle.
The experiment was further extended from murine to primate, testing direct intradermal injection on macaques. The control solution was identical to that described for the mice and rat protocols. The test solution contained 100 μg of pND21ux plasmid and 50 μg of ATA in 100 μl water. Ten macaques were included in the control group and twelve were included in the test group.

16HBE14o = assay: Transfection of cultured cells with DNA/DOTAP +/- ATA, luciferase assay; assay type: cell-based, human; conditions: very highest doses 80 μg/ml, 40 μg/ml, 10 μg/ml
Protocol: The human respiratory epithelial cell line, 16HBE14o (Dieter Grunert, UCSF) was cultured on flasks coated with fibronectin (Collaborative Research-Bectin Dickinson), vitrogen (Collagen Corp), basal media (Biofluids, Inc.) and bovine serum albumen (Biofluids, Inc.) as previously described [Gruenert, 1990 #7; Cozens, 1994 #8]. Cells were cultured on twenty four well tissue culture plates (Corning) coated with the above mixture. Culture media was Eagle's modified essential medium (EM) supplemented with 10% fetal bovine serum. 16HBE 14o cells were plated at a density of 5×10^4 cells/ml 24 hours prior to transfection and cells were transfected as subconfluent monolayer. […]
as §1

O=C(O)C1=CC(=C(c2ccc(O)c(C(=O)O)c2)c2ccc(O)c(C(=O)O)c2)C=CC1=O [ATA, aurin tricarboxylic acid]
lethality due to the ATA ([1]; 2 mg/kg ATA or lower doses, during the 48 hours after treatment): no lethality
mice died ([1]; 6 mg/kg ATA intratracheal with 100 micrograms plasmid): 50%
mice died ([1]; 8 mg/kg ATA intratracheal with 100 micrograms plasmid): 100%
pulmonary dose associated with significant mortality ([1]; intratracheal, mouse): > 2 μg/g body weight
Lung histology (H&E) after intratracheal plasmid +/- ATA ([1]; mouse lung, two days after treatment, plasmid with 0.5 or 6 mg ATA/g body mass): indistinguishable; also recorded: virtually nontoxic to the lung; also recorded: No significant histologic alterations
Health assessment of mice after transfection ([1]; up to 48 hours after transfection): healthy with no physical or behavioral side effects observed
Histologically apparent acute toxicity [2]: lack of histologically apparent acute toxicity
increase over free DNA transfections (mouse lung; doses of ATA virtually nontoxic to the lung): 57%
Toxicity to cells (NIH3T3): toxic and killed cells
enhancement of reporter gene expression, test group on average (Macaque Skin): 11 fold
Toxicity to cells (16HBE14o): toxic and killed cells

O=C(O)CN(CCN(CC(=O)O)CC(=O)O)CC(=O)O [EDTA, ethylenediaminetetraacetic acid]
Level of reporter protein expression after intratracheal administration of plasmid, enhancement by co-administration (mouse lung): Neither EDTA nor citrate significantly enhanced the level of expression

O=C(O)CC(O)(CC(=O)O)C(=O)O [sodium citrate]
Level of reporter protein expression after intratracheal administration of plasmid, enhancement by co-administration (mouse lung; listed as citrate): Neither EDTA nor citrate significantly enhanced the level of expression
